Results as given in patent US5272151A, “Aminoacyl and oligopeptidyl derivatives of allopurinol exhibiting immunostimulatory activity, and pharmaceutical formulations containing these substances” (Sigma-Tau Industrie Farmaceutiche Riunite S.p.A., priority 1991, dated 1993).
Read-outs that look alike come from different tables or passages of the source.

Tests used:
S. marcescens = assay: Protective effect in experimentally-infected immunosuppressed mice (S. marcescens); format: in vivo; details: for % Mortality, S. marcescens: cyclophosphamide-immunodepressed CD1 mice, 25 mg/kg/d i.p. day -5 through day -1, challenge day 0
Text: (§1) Evaluation of the protective effects of ST 689 and ST 789 in experimentally-infected immunosuppressed mice.
(§2) Male CDl mice (Charles River, Italy), 6-10 weeks old, were used in experimental groups of 9-20 animals. Systemic infection in the mice was achieved by intrapcritoncal inoculation of a pathogenic species of Klebsiclla (K. oxytoca), Proteus (P. mirabilis), Serratia (S. marcescens),and Hscherichia (E. coli). Eighteen-hour broth cultures were used to prepare infectious inocula that were either sublethal (Proteus) or which corresponded to an LD30 (Serratia) and an LD10 (Escherichia, Klebsiella). The bacterial challenge, inoculated i.p. in 0.5 mL of 5% gastric mucin, was designed to cause the death of animals immunodepressed with cyclophosphamide (administered i.p. in 0.2 mL of sterile physiological solution at a dosage of 100 mg/kg) 5 days prior to infection. The compounds were administered i.p. at daily doses of 25 mg/kg from day -5 to day -1 with respect to the day of bacterial inoculation (day 0). The results are expressed as % mortality and were statistically analysed using Fisher's test (Biostatistics in Pharmacology, vol. 2, Pergamon Press).

rat blood granulocytes = assay: In vitro-ex vivo chemotactic activity of rat blood granulocytes (modified Boyden chamber); details: for Chemotaxis (μm ± S.E.) induced: casein-induced migration; for Chemotaxis (μm ± S.E.) induced / Chemotaxis (μm ± S.E.) spontaneous: 25 mg/kg/d i.p. day -5 through day -1; for Chemotaxis (μm ± S.E.) spontaneous: spontaneous migration (Hank's medium)
Experimental: In vitro-ex vivo effects of ST 689 and ST 789 on the chemotactic activity of rat blood granulocytes.
(§3) Inbred male Fisher 344 rats (Charles River, Italy), ca. 6 months old, were used in experimental groups of 5 animals. Test animals received the compounds at dosage of 25 mg/kg daily from day -5 through day -1 relative to the day of blood sampling (day 0). The experimental procedure employed is described in Cates, L. K. et al., Modified Boyden chamber method of measuring polymorphonuclear leukocyte chemotaxis, in Leukocyte chemotaxis, Raven Press, New York, N.Y., 1978, p. 67.
Blood was sampled from decapitated animals that, after passage through heparinised gauze, was diluted 1/1 with dextran (1.5% in physiological solution) and allowed to sediment for 90 min. The granulocytes, extracted from whole blood by the usual methods; were brought to a concentration of 2×10^6 cells/mL in Hank's medium. They were then deposited on Millipore filters (3 μm) and placed in migration chambers. These chambers contained either Hank's medium for the evaluation of spontaneous migration, or casein (2 mL of a 5 mg/mL solution) for the evaluation of induced migration. After incubating the samples for 60 min at 37° C. with 5% CO2, the Millipore filters were removed, stained, and inserted between microscope slides. Microscopic observations were performed to determine the furthest distance (in μm) traversed in controls and experimental samples by 2 granulocytes within the rectangular viewing field. Granulocytic migration is expressed as the average value of 10 detailed observations on two filters prepared from each sample.

[1] = test system: mouse peritoneal exudate cells (PECs); assay: In vitro-ex vivo phagocytic activity of mouse peritoneal exudate cells (PECs); details: for % Phagocytic cells: % of cells that had phagocytosed relative to potential phagocytes in PECs; for % Phagocytic cells / SRBC phagocytosed / SRBC per phagocyte: 25 mg/kg daily i.p. day -5 through day -1; for SRBC phagocytosed: average number of SRBC phagocytosed by 100 potential phagocytes; for SRBC per phagocyte: average number of SRBC phagocytosed per phagocyte
Experimental: In vitro-ex vivo effects of ST 689 and ST 789 on phagocytic activity of mouse peritoneal exudate cells (PECs).
Male B6 D2 F1 mice (Charles River, Italy), 6 weeks old, in experimental groups of 5 animals, were treated with the above substances i.p. at daily doses of 25 mg/kg from day -5 through day -1 relative to the day the PECs were sampled (day 0). The experimental procedure followed those described in [1] and [2]; briefly, the animals in each group were asphyxiated with CO2, the peritoneal cavities repeatedly washed, and the PECs recovered from each experimental group pooled and standardised to 4×10^6 cells/mL. Aliquots (250 μL) of phagocyte suspension were added to equal volumes of 0.4% SRBC that had been appropriately opsonised with hyperimmune serum. The samples, prepared in duplicate, were incubated for 1 h and then osmotically shocked to eliminate non-phagocytosed erythrocytes. After adjusting the osmolarity to normal values, the phagocytes were centrifuged and differentially stained. Microscopic counts of cells with phagocytic capabilities and of phagocytosed SRBC in fields of 200 cells were performed in triplicate. The results are expressed as % phagocytic cells, the average number of SRBC phagocytosed per phagocyte, and the total number of SRBC phagocytosed per 100 phagocytes.

K. oxytoca = assay: Protective effect in experimentally-infected immunosuppressed mice (K. oxytoca); format: in vivo; details: for % Mortality, K. oxytoca: cyclophosphamide-immunodepressed CD1 mice, 25 mg/kg/d i.p. day -5 through day -1, challenge day 0
Text: as §1, §2

[2] = Body and spleen weight of rats in the chemotaxis test (Test 3); format: in vivo, rat; details: Fisher 344 rats; 25 mg/kg/d i.p. day -5 through day -1
Experimental: as §3

P. mirabilis = assay: Protective effect in experimentally-infected immunosuppressed mice (P. mirabilis); format: in vivo; details: for % Mortality, P. mirabilis: cyclophosphamide-immunodepressed CD1 mice, 25 mg/kg/d i.p. day -5 through day -1, challenge day 0
Text: as §1, §2

[3] = test system: CEM-CM3 human leukaemic lymphoblasts; assay: In vitro-ex vivo cytostatic activity of mouse peritoneal macrophages towards tumour targets; details: for inhibition at 25 mg/kg: Mus musculus, Peritoneal macrophage
Experimental: In vitro-ex vivo effects of substances ST 689 and ST 789 on the cytostatic activity of mouse peritoneal macrophages (MO) towards tumour targets.
Male B6 D2 F1 mice (Charles River, Italy), 7 weeks old, 5 animals per experimental group, were treated with the above substances i.p. at daily dosages of 25 mg/kg from day -5 through day -1 relative to the day of macrophage sampling (day 0). The tumour target, CEM--CM3 human leukaemic lymphoblasts, was admixed with adherent Mo so as to have two different precisely-measured effector:target ratios, viz. 10:1 and 20:1. Each sample, prepared in triplicate in flat-bottom microliter wells, was labelled with ^3 H--TdR (0.05 μCi) by incubation for 18 h at 37° C. The tumour cells from each well were collected on filters, counted in a β-counter, and the % inhibition of tumour target growth determined using the formula. [formula]

[4] = immunodepressed mice, 25 mg/kg/d i.p.

N=C(N)NCCC[C@H](NC(=O)OCCCCCn1cnc2c(=O)[nH]cnc21)C(=O)O [ST 789, N-alfa-5-(hypoxanthin-9-yl)-pentyloxycarbonylarginine, reference compound]
% Mortality, S. marcescens (S. marcescens): 50%
Chemotaxis (μm ± S.E.) induced (rat blood granulocytes): 30.4 ± 2.30 μm
Chemotaxis (μm ± S.E.) spontaneous (rat blood granulocytes): 10.01 ± 1.09 μm
% Phagocytic cells [1]: 31.5 ± 0.5%
SRBC phagocytosed [1]: 152.5 ± 9.5
SRBC per phagocyte [1]: 4.85 ± 0.25
% Mortality, K. oxytoca (K. oxytoca): 10%
Body wt [2]: 345.6 ± 8.84 g
Spleen wt [2]: 610.0 ± 22.00 mg
% Mortality, P. mirabilis (P. mirabilis): 11,1%
Growth inhibition of the CEM-CM3 cell line, in words ([3]; 25 mg/kg daily i.p.): definite increase in growth inhibition
% Growth Inhibition 10:1 ([3]; effector:target ratio 10:1, 25 mg/kg daily day -5 through day -1): 15.85 ± 3.33%
% Growth Inhibition 20:1 ([3]; effector:target ratio 20:1, 25 mg/kg daily day -5 through day -1): 30.31 ± 5.19%

O=c1[nH]cnc2c1cnn2CCCCCO [ST 689, 1,5-dihydro-1-(5-hydroxypentyl)-4H-pyrazolo-[3,4-d]-pyrimidin-4-one]
% Mortality, S. marcescens (S. marcescens): 20%
Protective activity in Serratia infection, in words (S. marcescens; [4]): better than ST 789
Increase of rat granulocyte chemotaxis, in words (rat blood granulocytes; 25 mg/kg/d i.p.): more active than ST 789
Chemotaxis (μm ± S.E.) induced (rat blood granulocytes): 44.8 ± 1.40 μm
Chemotaxis (μm ± S.E.) spontaneous (rat blood granulocytes): 14.40 ± 0.40 μm
Effect on the phagocytic capabilities of PECs, in words ([1]; 25 mg/kg daily i.p.): extremely positive effect
% Phagocytic cells [1]: 42.5 ± 0.5%
SRBC phagocytosed [1]: 229.5 ± 34.5
SRBC per phagocyte [1]: 5.40 ± 0.90
% Mortality, K. oxytoca (K. oxytoca): 10%
Protective activity in Klebsiella infection, in words (K. oxytoca; [4]): equal to that of ST 789
Body wt [2]: 358.0 ± 9.49 g
Spleen wt [2]: 591.4 ± 17.13 mg
% Mortality, P. mirabilis (P. mirabilis): 10%
Protective activity in Proteus infection, in words (P. mirabilis; [4]): equal to that of ST 789
inhibition at 25 mg/kg ([3]; effector:target ratio 10:1, 25 mg/kg daily day -5 through day -1, read-out: % Growth Inhibition 10:1): 32.8 ± 1.84%
inhibition at 25 mg/kg ([3]; effector:target ratio 20:1, 25 mg/kg daily day -5 through day -1, read-out: % Growth Inhibition 20:1): 48 ± 5.46%
